The values below come from patent publication US20040034219A1, “Benzothiophene derivative compounds process of preparation and use thereof” (priority 2000, published 2004).

For data set [1], the target named is T1, 5-HT1A receptors (Rattus norvegicus, UniProt P19327).
T1 construct: fraction of membranes isolated from the cerebral cortex of rats; from tissue; host or cells: rat cerebral (frontal) cortex membranes
T1 sequence (P19327 1-422): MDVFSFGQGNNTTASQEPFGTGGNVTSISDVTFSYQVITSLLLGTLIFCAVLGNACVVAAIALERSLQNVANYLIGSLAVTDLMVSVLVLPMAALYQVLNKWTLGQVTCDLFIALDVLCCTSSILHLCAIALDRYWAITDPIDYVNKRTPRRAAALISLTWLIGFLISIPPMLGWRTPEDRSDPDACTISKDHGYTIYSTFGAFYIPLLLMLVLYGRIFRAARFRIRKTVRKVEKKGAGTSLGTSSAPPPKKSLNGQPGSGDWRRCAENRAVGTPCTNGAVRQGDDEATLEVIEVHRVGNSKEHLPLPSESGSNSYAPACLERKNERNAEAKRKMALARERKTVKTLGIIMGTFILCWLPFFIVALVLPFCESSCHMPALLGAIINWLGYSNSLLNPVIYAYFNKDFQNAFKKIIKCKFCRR
The data set is described as follows: Tests for fixing to serotonin 5HT1A receptors, 3H-DPAT displacement. Format: binding. Particulars: membranes of rat cerebral cortex, 3H-DPAT 1 nM, 15 minutes at 37° C. Here is the method:
Tests for Fixing to Serotonin 5HT1A Receptors
The technique described by Hoyer and collaborators (Eur. J. Pharmacol. 118:13-23.1985) was used to determine the affinity of the products for the 5-HT1A receptors. The studies were carried out with the fraction of membranes isolated from the cerebral cortex of rats. The agonist ^3H-Dipropylaminotetraline (DPAT) was used as specific ligand, while non-radioactive DPAT was used as displacing ligand.
In order to isolate the fraction of membranes, the frontal cortex of the rat was dissected and homogenised in Tris-HCl 50 mM, pH 7.7 at 4° C. The resulting homogenate was centrifuged at 25000 rpm for 15 minutes at 4° C. and the sediment resuspended in Tris-HCl containing CaCl2 4 mM. For the fixing test the suspension of membranes was incubated with ^3H-DPAT (1 nM) and different concentrations of the cold displacing agent. Once the incubation period of 15 minutes at 37° C. had elapsed, the membrane fraction was separated by means of rapid filtration and the radioactivity of the combined fraction quantified by means of liquid scintillation.
(§1) The results are expressed as the Ki of the serotonin transporter and the Ki of the 5-HT1A receptor.

The target of data set [2] is T2, serotonin transporter (Rattus norvegicus, UniProt P31652).
T2 construct: a fraction of semi-purified membranes of the cerebral cortex of rat; from tissue; host or cells: rat cerebral cortex membranes
The data set is described as follows: Tests of fixing to the serotonin transporter (5-HT), 3H-paroxetine displacement. The format is binding. Particulars: membranes of rat cerebral cortex, 3H-paroxetine 0.1 nM, 60 minutes at 22° C. Here is the method:
Tests of Fixing to the Serotonin Transporter (5-HT)
The biological material used was a fraction of semi-purified membranes of the cerebral cortex of rat, obtained using the method described above.
The membrane fraction was resuspended in Tris-HCl 50 mM, pH 7.4 at 40° C., which contained NaCl 120 mM and KCl 5 mM, and was incubated with ^3H-paroxetine 0.1 nM and different concentrations of fluoxetine as displacing agent. At the end of the period of incubation of 60 minutes at 22° C. the membrane fraction was separated by rapid filtration and the radioactivity of the combined fraction quantified by means of liquid scintillation.
as §1

Where a name gives a salt, the structure may show the parent alone.

T2 sequence (P31652 whole entry): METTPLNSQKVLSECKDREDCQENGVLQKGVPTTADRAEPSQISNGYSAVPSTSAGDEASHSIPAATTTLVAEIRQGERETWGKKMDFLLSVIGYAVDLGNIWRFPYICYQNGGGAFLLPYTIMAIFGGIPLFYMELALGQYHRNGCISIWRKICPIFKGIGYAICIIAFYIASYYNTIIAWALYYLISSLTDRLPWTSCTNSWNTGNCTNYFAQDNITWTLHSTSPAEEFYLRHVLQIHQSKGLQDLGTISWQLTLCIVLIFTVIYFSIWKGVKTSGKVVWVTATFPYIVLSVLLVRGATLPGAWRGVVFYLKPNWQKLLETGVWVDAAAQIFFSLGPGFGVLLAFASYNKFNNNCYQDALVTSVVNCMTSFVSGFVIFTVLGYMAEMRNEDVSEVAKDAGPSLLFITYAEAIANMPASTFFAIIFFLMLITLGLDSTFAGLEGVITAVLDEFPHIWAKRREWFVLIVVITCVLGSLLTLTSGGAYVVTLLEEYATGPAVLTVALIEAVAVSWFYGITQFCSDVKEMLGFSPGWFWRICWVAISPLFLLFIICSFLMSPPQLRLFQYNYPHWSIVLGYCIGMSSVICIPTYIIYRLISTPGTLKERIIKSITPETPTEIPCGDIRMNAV

The compound `Cl.Cl.O=C(CCN1CCN(c2cccc3cccnc23)CC1)c1csc2ccccc12` gave a melting point of 150 to 152 °C.

The compound `O=C(CCN1CCN(c2cccc3[nH]ccc23)CC1)c1csc2ccccc12` [Example 10, 1-(benzo[b]thiophen-3-yl)-3-[4-(indol-4-yl)piperazin-1-yl]propan-1-one] had a melting point of 83 to 85 °C.

The compound `O=C(CCN1CCN(c2ccc3ccccc3n2)CC1)c1csc2ccccc12` [Example 14, 1-(benzo[b]thiophen-3-yl)-3-[4-(quinol-2-yl)piperazin-1-yl]propan-1-one] registered a melting point of 92 to 96 °C.

For `O=C(CCN1CCN(c2ccnc3ccccc23)CC1)c1csc2ccccc12` [Example 15, 1-(benzo[b]thiophen-3-yl) -3-[4-(quinol-4-yl)piperazin-1-yl]propan-1-one], the melting point lay within 134 to 136 °C.

Regarding `O=C(CCN1CCN(c2cnc3ccccc3c2)CC1)c1csc2ccccc12` [Example 16, 1-(benzo [b]thiophen-3-yl) -3-[4-(quinol-3-yl)piperazin-1-yl]propan-1-one], the melting point lay within 112 to 114 °C.

Take `O=C(CCN1CCN(c2cccc3c2OCCO3)CC1)c1csc2ccc([N+](=O)[O-])cc12` [Example 21, 1-(5-nitrobenzo[b]thiophen-3-yl)-3-[4-(2,3-dihydro-1,4-benzodioxyn-5-yl)piperazin-1-yl]propan-1-one]: the Ki was found to be 3.2 nM in data set [1] and 15.9 nM in data set [2].

Take `OC(CCN1CCN(c2cccc3cccnc23)CC1)c1csc2ccc(F)cc12` (stereo not drawn) [Example 27, 1-(5-fluorobenzo[b]thiophen-3-yl)-3-[4-(quinol-8-yl)piperazin-1-yl]propan-1-ol]: the melting point is 89 to 91 °C. In data set [1], affinity was put at a Ki of 2.7 nM. Affinity in data set [2] was put at a Ki of 7.5 nM.

As for `OC(CCN1CCN(c2cccc3c2OCCO3)CC1)c1csc2ccc(F)cc12` (stereo not drawn) [Example 28, 1-(5-fluorobenzo[b]thiophen-3-yl)-3-[4-(2,3-dihydro-1,4-benzodioxyn-5-yl)piperazin-1-yl]propan-1-ol], the melting point was 147 to 150 °C. In addition, in data set [1], the inhibitory constant (Ki) is 6 nM. The same compound came in with a Ki in data set [2] of 14.9 nM.

As to `OC(CCN1CCN(c2cccc3[nH]ccc23)CC1)c1csc2ccc(F)cc12` (stereo not drawn) [Example 29, 1-(5-fluorobenzo[b]thiophen-3-yl)-3-[4-(indol-4-yl)piperazina-1-yl]propan-1-ol], the melting point was 170 to 173 °C. Moreover, the Ki in data set [1] stood at 5.9 nM. The affinity in data set [2] corresponds to a Ki of 7.3 nM.

Turning to `Cc1ccc2cccc(N3CCN(CCC(O)c4csc5ccc(F)cc45)CC3)c2n1` (stereo not drawn) [Example 30, 1-(5-fluorobenzo[b]thiophen-3-yl)-3-[4-(quinaldin-8-yl)piperazin-1-yl]propan-1-ol], the Ki in data set [1] worked out at 2.5 nM; in data set [2] it was 8.5 nM.

Consider `Cl.OC(CCN1CCN(c2cccc3cccnc23)CC1)c1csc2ccccc12` (stereo not drawn) [Example 33, 1-(benzo[b]thiophen-3-yl)-3-[4-(quinol-8-yl)piperazin-1-yl]propan-1-ol hydrochloride], for which the melting point lay within 169 to 170 °C. Moreover, in data set [1], the inhibition constant (Ki) was 1.5 nM. For the same compound, in data set [2], the inhibition constant Ki stood at 8.6 nM.

In turn, `Cl.OC(CCN1CCN(c2cccc3[nH]ccc23)CC1)c1csc2ccccc12` (stereo not drawn) [Example 35, 1-(benzo[b]thiophen-3-yl)-3-[4-(indol-4-yl)piperazin-1-yl]propan-1-ol hydrochloride] gave a melting point of over 300 °C. Also, the Ki in data set [1] was 5.5 nM. Moreover, the Ki in data set [2] was found to be 4.1 nM.

On to `Cc1ccc2cccc(N3CCN(CCC(O)c4csc5ccccc45)CC3)c2n1` (stereo not drawn) [Example 36, 1-(benzo[b]thiophen-3-yl)-3-[4-(quinaldin-8-yl)piperazin-1-yl]propan-1-ol hydrochloride], for which the Ki in data set [1] is 10.2 nM; in data set [2], 9.9 nM.

`OC(CCN1CCN(c2cccc3ncccc23)CC1)c1csc2ccccc12` (stereo not drawn) [Example 37, 1-(benzo[b]thiophen-3-yl)-3-[4-(quinol-5-yl)piperazin-1-yl]propan-1-ol] registered a melting point of 127 to 129 °C. In data set [1], the Ki came out at 26.1 nM. The compound also had a Ki in data set [2] of 12.7 nM.

As to `O=[N+]([O-])c1ccc2scc(C(O)CCN3CCN(c4cccc5c4OCCO5)CC3)c2c1` (stereo not drawn) [Example 39, 1-(5-nitrobenzo[b]thiophen-3-yl)-3-[14-(2,3-dihydro-1,4-benzodioxyn-5-yl)piperazin-1-yl]propan-1-ol], the Ki in data set [1] stood at 14 nM; in data set [2], 6.9 nM.

Turning to `OC(CCN1CCN(c2ccc3ccccc3n2)CC1)c1csc2ccccc12` (stereo not drawn) [Example 44, 1-(benzo [b]thiophen-3-yl) -3-[4-(quinol-2-yl)piperazin-1-yl]propan-1-ol], the Ki is 377 nM in data set [1] and 6.4 nM in data set [2].

In the case of `OC(CCN1CCN(c2ccnc3ccccc23)CC1)c1csc2ccccc12` (stereo not drawn) [Example 45, 1-(benzo[b]thiophen-3-yl)-3-[4-(quinol-4-yl)piperazin-1-yl]propan-1-ol hydrochloride], the Ki was 301 nM in data set [1] and 19.4 nM in data set [2].

Consider `OC(CCN1CCN(c2ccc3ncccc3c2)CC1)c1csc2ccccc12` (stereo not drawn) [Example 47, 1-(benzo[b]thiophen-3-yl)-3-[4-(quinol-6-yl)piperazin-1-yl]propan-1-ol], for which the Ki in data set [1] came out at 546 nM; in data set [2] it was 2.2 nM.

As to `Oc1ccc2scc(C(O)CCN3CCN(c4cccc5c4OCCO5)CC3)c2c1` (stereo not drawn) [Example 50, 1-(5-hydroxybenzo[b]thiophen-3-yl)-3-[4-(2,3-dihydro-1,4-benzodioxyn-5-yl)piperazin-1-yl]propan-1-ol], the Ki in data set [1] worked out at 18.2 nM; in data set [2] it was 6.2 nM.

As usually defined, the melting point is the temperature of the solid-liquid transition. A word on the Ki: it is the dissociation constant of the complex between target and ligand, obtained from inhibition or displacement. A lower Ki goes with tighter binding.
